# Data published in EPA's ToxRefDB 2.
# Experiments:
# [1] = tested on: dog; details: Subchronic oral toxicity in nonrodent, beagle, Feed, dose end: 90 day, group: systemic
# [2] = tested on: rat; details: Combined chronic toxicity/carcinogenicity, sprague dawley, Oral, Feed, dose end: 2 year, group: systemic
# [3] = tested on: mouse; details: Carcinogenicity, cd1, Oral, Feed, dose end: 18 month, group: systemic
# [4] = tested on: rat; details: Multigenerational reproductive toxicity study, other, Oral, Feed, dose end: 2 generation
# [5] = tested on: rat; details: Subchronic oral toxicity in rodents, other, Feed, dose end: 90 day, group: systemic
# [6] = tested on: dog; details: Chronic toxicity; beagle; Oral; Feed; dose end: 1 year; group: systemic; systemic / organ weight / kidney / absolute + systemic / pathology gross / liver / enlarged + systemic / pathology microscopic / epididymis…
# [7] = tested on: rat; details: Sub-acute repeat dose toxicity, fischer, Oral, Feed, dose end: 14 day, group: systemic
# [8] = tested on: mouse; details: Sub-acute repeat dose toxicity, b6c3f1, Oral, Feed, dose end: 14 day, group: systemic
# [9] = tested on: mouse; details: Subchronic oral toxicity in rodents, b6c3f1, Feed, dose end: 13 week, group: systemic
# [10] = tested on: rat; details: Carcinogenicity; fischer; Oral; Feed; dose end: 103 week; group: systemic; systemic / in life observation / body weight / body weight
# [11] = tested on: rat; details: Subchronic oral toxicity in rodents, fischer, Feed, dose end: 13 week, group: systemic
# [12] = tested on: mouse; details: Carcinogenicity, b6c3f1, Oral, Feed, dose end: 103 week, group: systemic
# [13] = tested on: dog; details: Subchronic oral toxicity in nonrodent, beagle, Feed, dose end: 90 day, group: systemic; remark: listed apart in the source
# [14] = tested on: rat; details: Prenatal developmental toxicity study, sprague dawley, Oral, Gavage/Intubation, dose end: 15 GD
# [15] = tested on: rat; details: Subchronic oral toxicity in rodents, sprague dawley, Feed, dose end: 90 day, group: systemic, systemic / clinical chemistry / alkaline phosphatase (alp/alk) / alkaline phosphatase (alp/alk) + systemic / hematology / mean corpuscular …
# [16] = tested on: rat; details: Combined chronic toxicity/carcinogenicity, sprague dawley, Oral, Feed, dose end: 24 month, group: systemic
# [17] = tested on: dog; details: Chronic toxicity, beagle, Oral, Feed, dose end: 1 year, group: systemic
# [18] = systemic / urinalysis / specific gravity/osmolality / specific gravity/osmolality + systemic / urinalysis / volume / volume
# [19] = systemic / in life observation / body weight / body weight gain + systemic / organ weight / liver / relative to body weight + systemic / …
# [20] = systemic / in life observation / body weight / body weight + systemic / pathology microscopic / stomach / cyst + systemic / pathology …
# [21] = group: offspring, systemic / in life observation / body weight / offspring (pup) weight + systemic / in life observation / clinical signs / reduced body size
# [22] = group: parental, systemic / in life observation / body weight / body weight gain
# [23] = group: reproductive, reproductive / reproductive performance / gestational length / gestational length
# [24] = systemic / clinical chemistry / alanine aminotransferase (alt/sgpt) / alanine aminotransferase (alt/sgpt) + systemic / clinical chemistry / …
# [25] = systemic / in life observation / body weight / body weight gain
# [26] = systemic / in life observation / body weight / body weight gain + systemic / in life observation / food consumption / food consumption + …
# [27] = systemic / in life observation / body weight / body weight
# [28] = systemic / in life observation / body weight / body weight + systemic / in life observation / food consumption / food consumption + systemic…
# [29] = systemic / in life observation / body weight / body weight gain + systemic / in life observation / body weight / body weight
# [30] = systemic / in life observation / body weight / body weight + systemic / pathology microscopic / liver / adenoma/carcinoma combined + …
# [31] = systemic / in life observation / body weight / body weight gain + systemic / clinical chemistry / alanine aminotransferase (alt/sgpt) / …
# [32] = group: developmental, developmental / developmental malformation / bone / supernumerary + developmental / developmental malformation / bone / unossified
# [33] = group: maternal, systemic / in life observation / body weight / body weight gain + systemic / in life observation / clinical signs / salivation + systemic / …
# [34] = systemic / clinical chemistry / gamma glutamyl transferase (ggt) / gamma glutamyl transferase (ggt) + systemic / organ weight / kidney / …
# [35] = systemic / hematology / anemia / anemia - hemolytic + systemic / hematology / erythrocyte (rbc) count differential / erythrocyte (rbc) + …
# [36] = systemic / pathology microscopic / liver / hyperplasia + systemic / pathology microscopic / liver / hypertrophy + systemic / clinical …
compound,measurement,setting,value
CCS(=O)(=O)c1cccnc1S(=O)(=O)NC(=O)Nc1nc(OC)cc(OC)n1 [Rimsulfuron],LEL,[1]; [18],6.25 mg/kg/day
same,LOAEL,[1]; [18],125 mg/kg/day
same,NEL,[1]; [18],< 6.25 mg/kg/day
same,NOAEL,[1]; systemic / urinalysis / specific gravity/osmolality / specific gravity/osmolality + systemic / urinalysis / volume / volume + systemic / …,6.25 mg/kg/day
same,LEL,[2]; systemic / clinical chemistry / alkaline phosphatase (alp/alk) / alkaline phosphatase (alp/alk),11.8 mg/kg/day
same,LOAEL,[2]; systemic / in life observation / body weight / body weight gain + systemic / organ weight / liver / relative to body weight,121 mg/kg/day
same,NEL,[2]; [19],1 mg/kg/day
same,NOAEL,[2]; [19],11.8 mg/kg/day
same,LOAEL,[3]; [20],1130 mg/kg/day
same,NEL,[3]; [20],3.47 mg/kg/day
same,NOAEL,[3]; [20],351 mg/kg/day
same,LEL,[3]; systemic / pathology microscopic / testes / degeneration,35.5 mg/kg/day
same,LEL,[4]; [21],1320 mg/kg/day
same,LOAEL,[4]; [21],1320 mg/kg/day
same,NEL,[4]; [21],264 mg/kg/day
same,NOAEL,[4]; [21],264 mg/kg/day
same,LEL,[4]; [22],830 mg/kg/day
same,LOAEL,[4]; [22],830 mg/kg/day
same,NEL,[4]; [22],165 mg/kg/day
same,NOAEL,[4]; [22],165 mg/kg/day
same,LEL,[4]; [23],1020 mg/kg/day
same,LOAEL,[4]; [23],> 1020 mg/kg/day
same,NEL,[4]; [23],204 mg/kg/day
same,NOAEL,[4]; [23],≥ 1020 mg/kg/day
same,LEL,[5]; [24],3.35 mg/kg/day
same,NEL,[5]; [24],< 3.35 mg/kg/day
same,NOAEL,[5]; [24],102 mg/kg/day
same,LOAEL,[5]; [25],495 mg/kg/day
same,LEL,[6],81.8 mg/kg/day
same,LOAEL,[6],81.8 mg/kg/day
same,NEL,[6],1.6 mg/kg/day
same,NOAEL,[6],1.6 mg/kg/day
CCCCC(CC)COC(=O)CCCCC(=O)OCC(CC)CCCC (stereo not given) [Di(2-ethylhexyl) adipate],LEL,[7]; [25],1250 mg/kg/day
same,LOAEL,[7]; [25],2500 mg/kg/day
same,NEL,[7]; [26],625 mg/kg/day
same,NOAEL,[7]; [26],1250 mg/kg/day
same,LEL,[8]; [27],3750 mg/kg/day
same,LOAEL,[8]; [27],7500 mg/kg/day
same,NEL,[8]; [28],1880 mg/kg/day
same,NOAEL,[8]; [28],3750 mg/kg/day
same,LEL,[9]; [25],465 mg/kg/day
same,LOAEL,[9]; [29],> 3750 mg/kg/day
same,NEL,[9]; [29],240 mg/kg/day
same,NOAEL,[9]; [29],≥ 3750 mg/kg/day
same,LEL,[10],1250 mg/kg/day
same,LOAEL,[10],1250 mg/kg/day
same,NEL,[10],600 mg/kg/day
same,NOAEL,[10],600 mg/kg/day
same,LEL,[11]; [25],625 mg/kg/day
same,LOAEL,[11]; [25],625 mg/kg/day
same,NEL,[11]; [29],315 mg/kg/day
same,NOAEL,[11]; [29],315 mg/kg/day
same,LOAEL,[12]; [27],1800 mg/kg/day
same,NOAEL,[12]; [27],< 1800 mg/kg/day
same,LEL,[12]; [30],1800 mg/kg/day
same,NEL,[12]; [30],< 1800 mg/kg/day
COC(=O)c1c(C(F)F)nc(C(F)(F)F)c(C2=NCCS2)c1CC(C)C [Thiazopyr],LOAEL,[13]; [25],3 mg/kg/day
same,NEL,[13]; [31],2 mg/kg/day
same,NOAEL,[13]; [31],2 mg/kg/day
same,LEL,[13]; systemic / in life observation / body weight / body weight gain + systemic / clinical chemistry / albumin-globulin ratio / albumin-globulin …,3 mg/kg/day
same,LEL,[14]; [32],250 mg/kg/day
same,LOAEL,[14]; [32],250 mg/kg/day
same,NEL,[14]; [32],100 mg/kg/day
same,NOAEL,[14]; [32],100 mg/kg/day
same,LOAEL,[14]; [33],250 mg/kg/day
same,NEL,[14]; [33],10 mg/kg/day
same,NOAEL,[14]; [33],100 mg/kg/day
same,LEL,"[14]; group: maternal, systemic / organ weight / liver / nos",100 mg/kg/day
same,LEL,[15],68 mg/kg/day
same,LOAEL,[15],68 mg/kg/day
same,NEL,[15],6.6 mg/kg/day
same,NOAEL,[15],6.6 mg/kg/day
same,LOAEL,[16]; [34],44.2 mg/kg/day
same,NOAEL,[16]; [34],4.4 mg/kg/day
same,LEL,[16]; [35],5.6 mg/kg/day
same,NEL,[16]; [35],0.6 mg/kg/day
same,LOAEL,[17]; systemic / pathology microscopic / liver / hyperplasia + systemic / pathology microscopic / liver / hypertrophy,7.8 mg/kg/day
same,LEL,[17]; [36],7.8 mg/kg/day
same,NEL,[17]; [36],0.8 mg/kg/day
same,NOAEL,[17]; [36],0.8 mg/kg/day
